Like-named read-outs stand apart in the source and are kept apart here.
Legend:
Plasmopara viticola = assay: Test A: grape downy mildew, preventive spray on grape seedlings; assay type: in vivo; conditions: 10 ppm, 100 = 100% disease control, 0 = no control
Excerpt: A dash (-) indicates no test results.

Phytophthora infestans = assay type: in vivo; conditions: 100 = 100% disease control; for Test C rating (% disease control): tomato late blight, 0 = no control
Botrytis cinerea = assay: Test B: gray mold, preventive spray on tomato seedlings; conditions: 100 = 100% disease control; for Test B rating (% disease control): gray mold on tomato, 0 = no control
[1] = system: Puccinia recondita f sp. tritici; assay: Test F: wheat leaf rust, preventive spray on wheat seedlings; conditions: 100 = 100% disease control; for Test F rating (% disease control): wheat leaf rust, 0 = no control
Zymoseptoria tritici = assay: Test E: wheat leaf blotch, preventive spray on wheat seedlings; conditions: 100 = 100% disease control; for Test E rating (% disease control): wheat leaf blotch, 0 = no control
Stagonospora nodorum = assay: Test D: wheat glume blotch, preventive spray on wheat seedlings; conditions: 100 = 100% disease control; for Test D rating (% disease control): wheat glume blotch, 0 = no control
[2] = system: Erysiphe graminis f sp. tritici; assay: Test G: wheat powdery mildew, preventive spray on wheat seedlings; conditions: 100 = 100% disease control; for Test G rating (% disease control): wheat powdery mildew, 0 = no control
[3] = 50 ppm test solution (asterisked compounds), 0 = no control relative to controls

Compound	Test A rating (% disease control) (Plasmopara viticola) [%]	Test C rating (% disease control) (Phytophthora infestans; 10 ppm) [%]	Test B rating (% disease control) (Botrytis cinerea; 10 ppm) [%]	Test F rating (% disease control) ([1]; 10 ppm) [%]	Test E rating (% disease control) (Zymoseptoria tritici; 10 ppm) [%]	Test D rating (% disease control) (Stagonospora nodorum; 10 ppm) [%]	Test G rating (% disease control) ([2]; 10 ppm) [%]	Test C rating (% disease control) (Phytophthora infestans; 50 ppm (asterisk)) [%]	Test B rating (% disease control) (Botrytis cinerea; 50 ppm (asterisk)) [%]	Test F rating (% disease control) ([1]; 50 ppm (asterisk)) [%]	Test E rating (% disease control) (Zymoseptoria tritici; 50 ppm (asterisk)) [%]	Test D rating (% disease control) (Stagonospora nodorum; 50 ppm (asterisk)) [%]	Test G rating (% disease control) ([2]; 50 ppm (asterisk)) [%]	also measured
CCCC(O)(Cn1cncn1)C1=NOC(c2ccc(Cl)cc2)C1 (single isomer, unassigned) [Compound 83]	1	0	0	99	0	87	99	–	–	–	–	–	–	–
OC(Cn1cncn1)(C1=NOC(COc2ccc(C(F)(F)F)cc2)C1)c1ccc(Cl)cc1 (single isomer, unassigned) [Compound 63]	3	0	0	100	97	41	100	–	–	–	–	–	–	–
C=CCC(O)(Cn1cncn1)C1=NOC(c2ccc(Cl)cc2)C1 (single isomer, unassigned) [Compound 85]	19	0	0	0	0	68	87	–	–	–	–	–	–	–
OC(Cn1cncn1)(C1=NOC(COc2ccc(Cl)cc2)C1)c1ccc(Cl)cc1 (single isomer, unassigned) [Compound 62]	3	0	0	92	0	0	96	–	–	–	–	–	–	–
OC(Cn1cncn1)(C1=NOC(c2ccc(-n3cncn3)cc2)C1)c1ccc(Cl)cc1 (mixture of isomers) [Compound 2]	33	0	0	100	0	0	99	–	–	–	–	–	–	–
CC1(c2ccc(Cl)cc2)CC(C(O)(Cn2cncn2)c2ccc(Cl)cc2)=NO1 (single isomer, unassigned) [Compound 212]	–	–	–	–	–	–	–	0	28	100	0	96	100	–
OC(Cc1ccc(Cl)cc1)(Cn1cncn1)C1=NOC(c2ccc(Cl)cc2)C1 (single isomer, unassigned) [Compound 93]	0	0	0	100	4	99	100	–	–	–	–	–	–	–
OC(Cn1cncn1)(C1=NOC(Cn2ccc(-c3ccc(Cl)cc3)n2)C1)c1ccc(Cl)cc1 (single isomer, unassigned) [Compound 66]	3	0	0	98	1	0	97	–	–	–	–	–	–	–
CCCC(O)(Cn1cncn1)C1=NOC(c2ccc(Cl)cc2)C1 (single isomer, unassigned) [Compound 82]	1	0	33	98	0	99	100	–	–	–	–	–	–	–
OC(Cn1cncn1)(C1=NOC(c2ccccc2)(C(F)(F)F)C1)c1ccc(Cl)cc1 (single isomer, unassigned) [Compound 215]	–	–	–	–	–	–	–	–	–	–	–	–	–	Test C disease control rating (Phytophthora infestans; [3]): 0%; Test B disease control rating (Botrytis cinerea; [3]): 0%; Test F disease control rating [1, 3]: 100%; Test E disease control rating (Zymoseptoria tritici; [3]): 0%; Test D disease control rating (Stagonospora nodorum; [3]): 0%; Test G disease control rating [2, 3]: 100%
CC(C)(C)C1CC(C(O)(Cn2cncn2)c2ccccc2)=NO1 (single isomer, unassigned) [Compound 125]	–	–	–	–	–	–	–	0	0	28	0	0	89	–
CC1(c2ccc(Cl)cc2)CC(C(O)(Cn2cncn2)c2ccccc2)=NO1 (single isomer, unassigned) [Compound 210]	–	–	–	–	–	–	–	0	0	100	41	100	100	–
OC(Cn1cncn1)(C1=NOC(c2ccc(Cl)cc2)C1)c1ccc(Cl)cc1 (single isomer, unassigned) [Compound 123]	–	–	–	–	–	–	–	0	56	100	100	100	100	–
OC(Cn1cncn1)(C1=NOC(c2ccc(F)cc2)C1)c1ccc(F)cc1 (single isomer, unassigned) [Compound 122]	–	–	–	–	–	–	–	0	0	100	77	100	100	–
CC1(c2ccc(Cl)cc2)CC(C(O)(Cn2cncn2)c2ccccc2)=NO1 (single isomer, unassigned) [Compound 211]	–	–	–	–	–	–	–	0	0	28	0	0	76	–
OC(Cn1cncn1)(C1=NOC(c2ccc(Cl)cc2)C1)c1ccc(Cl)cc1 (single isomer, unassigned) [Compound 120]	–	–	–	–	–	–	–	0	0	100	8	95	98	–
OC(Cn1cncn1)(C1=NOC(c2ccc(Cl)cc2)C1)c1ccccc1 (mixture of isomers) [Compound 117]	–	–	–	–	–	–	–	0	61	99	11	100	98	–
CC1(c2ccc(Cl)cc2)CC(C(O)(Cn2cncn2)c2ccc(Cl)cc2)=NO1 (single isomer, unassigned) [Compound 213]	–	–	–	–	–	–	–	0	7	99	0	52	96	–
OC(Cn1cncn1)(C1=NOC(c2ccccc2)C1)c1ccccc1 (mixture of isomers) [Compound 115]	–	–	–	–	–	–	–	0	51	68	0	100	99	–

Source: patent publication US20160242416A1, “FUNGICIDAL ISOXAZOLINE CARBINOLS” (E I DU PONT DE NEMOURS AND COMPANY, priority 2015, published 2016)
